Test results published in patent publication US11884686B2, “Chelate compounds” (priority 2016, dated 2024).

What was measured:
[1] = In vitro proton relaxivity in human serum; type: physicochemical; settings: 60 MHz, 40° C.
Experimental: Both the longitudinal and transverse relaxation times were measured in human serum (BioreclamationIVT, Cat #HMSRM-M) to reflect the efficiency of the Mn(II) based chelates in an environment close to physiological. The relaxivity assessment was carried out at a concentration ranging from 5 to 0 mM Mn(II), at 40° C. using a Minispec Mq benchtop NMR relaxometer (Bruker Instruments, Rheinstetten, Germany) operating at 60 MHz (1.4 T) with an inversion recovery pulse sequence. The longitudinal and transverse relaxivities of the complexes (e.g., r1 and r2 respectively) were calculated by plotting the reciprocal of their relaxation time versus the manganese concentration as determined via ICP-MS (Spectro Arcos FHS12, S/N 10003910 or S/N 12006120) for each Mn(II) based chelates. The dependence of T1 by B0 (i.e., magnetic field) applied was assessed via the acquisition of ^1H Nuclear Magnetic Relaxation Dispersion (NMRD) profiles. A dedicated Stelar SMARTracer Fast Field Cycling relaxometer (0.01-10 MHz) and a Bruker WP80 NMR electromagnet adapted to variable field measurements (20-80 MHz) and controlled by a SMARTracer PC-NMR console was used to record the ^1H NMRD profiles over an extended range of Larmor Frequencies (from 0.01 to 80 MHz). The temperature was monitored by a VTC91 temperature control unit and maintained by a gas flow. The temperature was determined by previous calibration with a Pt resistance temperature probe. High field relaxivities were measured on a Bruker AVANCE NMR spectrometer at 400 MHz. A total of 25 data points per NMRD profile were recorded at each temperature, pH 6.9 and with a manganese concentration in the samples of 6.99, 6.78 and 4.45 mM for the prior art Mn Chelate, Mn Chelate 4 and Mn Chelate 3, respectively. The concentration of Mn(II) in all samples was verified by Bulk Magnetic Susceptibility (BMS) measurements. Relaxivity was computed by subtracting the relaxation rate of the medium (distilled water) from the relaxation rate of the Mn(II) complex solution at each field strength and dividing the difference by the manganese concentration verified by BMS measurements.
The linear fit (R2>0.99 for all compounds examined) of 1/T1 and 1/T2 as a function of Mn concentration generated the r1 or r2 values reported in Table 4 for human serum.

[2] = Water solubility of Mn(II) based chelates; type: physicochemical; settings: thermodynamic from solid, 25° C.
Experimental: The solubility of Mn(II) based chelates was confirmed by dissolving purified Mn(II) based chelates ( 99% purity) in a prescribed volume of solvent (Millipore water 18.2 MegaOhm from a Millipore BioCell Benchtop unit) to provide a solution of given volume. Solutions were visually inspected for homogeneity and filtered through a 0.45 um PTFE filter membrane if necessary. The assessment was carried out at 25° C. Final sample concentrations were confirmed by determination of final Mn(II) concentration via ICP-MS (Spectro Arcos FHS[…] 10003910 or S/N 12006120).

Row | Compound | r1 (longitudinal relaxivity) [1] [mM⁻¹ s⁻¹] | solubility [2] [mM]
1 | CN1CCN2Cc3cccc(n3)CN(CC1)C(CCC(=O)NC[C@H](O)[C@@H](O)[C@H](O)[C@H](O)CO)C(=O)[O][Mn][O]C(=O)C2CCC(=O)NC[C@H](O)[C@@H](O)[C@H](O)[C@H](O)CO (stereo partly shown) [Mn Chelate 5] | 5.2 | > 500
2 | CN1CCN2Cc3cccc(n3)CN(CC1)C(CC(=O)NC[C@H](O)[C@@H](O)[C@H](O)[C@H](O)CO)C(=O)[O][Mn][O]C(=O)C2CC(=O)NC[C@H](O)[C@@H](O)[C@H](O)[C@H](O)CO (stereo partly shown) [Mn Chelate 5a] | 3.7 | > 500
3 | CN1CCN2Cc3cccc(n3)CN(CC1)C(CCC(=O)Nc1cc(C(=O)NCC(O)CO)cc(C(=O)NCC(O)CO)c1)C(=O)[O][Mn][O]C(=O)C2CCC(=O)Nc1cc(C(=O)NCC(O)CO)cc(C(=O)NCC(O)CO)c1 (stereo not shown) [Mn Chelate 7] | 6.0 | > 500
4 | CN1CCN2Cc3cccc(n3)CN(CC1)C(CCC(=O)N(CCO)CCO)C(=O)[O][Mn][O]C(=O)C2CCC(=O)N(CCO)CCO (stereo not shown) [Mn Chelate 9] | 4.3 | > 500
5 | CN1CCN2Cc3cccc(n3)CN(CC1)C(CCC(=O)NCC(O)CO)C(=O)[O][Mn][O]C(=O)C2CCC(=O)NCC(O)CO (stereo not shown) [Mn Chelate 10] | 4.3 | > 500
6 | CN1CCN2Cc3cccc(n3)CN(CC1)C(CC(=O)NCC(O)CO)C(=O)[O][Mn][O]C(=O)C2CC(=O)NCC(O)CO (stereo not shown) [Mn Chelate 10a] | 3.8 | > 500
7 | CN1CCN2Cc3cccc(n3)CN(CC1)C(CCC(=O)NC(CO)(CO)CO)C(=O)[O][Mn][O]C(=O)C2CCC(=O)NC(CO)(CO)CO (stereo not shown) [Mn Chelate 11] | 4.6 | 
